Measurements: US20090053306A1, “Pharmaceutical Compositions of a 5-HT2A Serotonin Receptor Modulator Useful for the Treatment of Disorders Related Thereto” (priority 2005, published 2009)
Values after ≈ are worked out from the molar mass of the structure shown. Where two headings read alike, the source gives them in different places. Values belong to the compound of their own block, whether it stands above or below them.

Columns and labels:
[1] = test system: JC virus; details: cited from earlier work
[2] = target: 5-HT2A (Homo sapiens, UniProt P28223); details: cited from earlier work
Chain of 5-HT2A (P28223 whole entry): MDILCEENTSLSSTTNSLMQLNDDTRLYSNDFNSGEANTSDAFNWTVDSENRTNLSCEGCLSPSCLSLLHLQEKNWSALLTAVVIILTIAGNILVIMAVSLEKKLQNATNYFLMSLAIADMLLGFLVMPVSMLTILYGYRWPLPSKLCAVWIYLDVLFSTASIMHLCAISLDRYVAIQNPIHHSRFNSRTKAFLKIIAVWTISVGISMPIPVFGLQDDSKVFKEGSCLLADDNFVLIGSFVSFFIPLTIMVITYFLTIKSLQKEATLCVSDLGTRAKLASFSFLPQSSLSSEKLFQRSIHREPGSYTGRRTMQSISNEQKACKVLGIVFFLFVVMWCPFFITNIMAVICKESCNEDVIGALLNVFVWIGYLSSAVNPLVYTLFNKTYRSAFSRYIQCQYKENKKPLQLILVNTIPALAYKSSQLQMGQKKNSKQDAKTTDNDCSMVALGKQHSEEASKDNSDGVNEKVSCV

[3] = test system: diabetic rats; details: cited from earlier work
[4] = Solubility determination in selected excipients (HPLC); assay type: physicochemical; details: thermodynamic from solid
Method: The vial contents were mixed for 30 seconds using a VWR mini vortexter followed by sonication (Branson 1510) for 1 minutes. Vials were placed into a constant temperature bath (i.e., about 25° C.) and allowed to equilibrate for no less than 12 hours. The resulting suspensions were transferred to eppendorf tubes each equipped with a 0.2 μm nylon filter (Costar 8168) and were centrifuged for 10 minutes at 14,000 rpms. The supernatant from each eppendorf tube was collected and diluted with HPLC grade acetonitrile or methonal with appropriate dilution factor. Each solution was analyzed by an HPLC method.
As an example, the following HPLC assay was used to determine the aqueous solubility of 1-[3-(4-bromo-2-methyl-2H-pyrazol-3-yl)-4-methoxy-phenyl]-3-(2,4-difluoro-phenyl)-urea:
HPLC System: Waters 2795; Stationary phase: Xterra® column, MS C18, 3.5 μm, 4.6×50 mm; Mobile phase: Line A: 100% De-ionized-Millipore water; Line B: 1.0% NH4OH; Line C: 100% HPLC grade Acetonitrile; Gradient: A: 80% to 0% in 8 minute; B: 10% constant in 8 minute; C: 10% to 90% in 8 minute; Flow rate: 1.50 mL/min; Column temperature: 40° C.±5° C.; Sample temperature: 25° C.±5° C.
Photodiode Array Detector: Waters 2996 with UV lamp: 3D data collection; Start wavelength: 210 nm; end wavelength: 320 nm.
Processing wavelength: 220 nm.
Quantification was effected by comparison of the HPLC peak area for each test solution with the peak area taken from a standard plot of concentration versus peak area for standards of known concentration. As is conventional, the standard concentrations for 1-[3-(4-bromo-2-methyl-2H-pyrazol-3-yl)-4-methoxy-phenyl]-3-(2,4-difluoro-phenyl)-urea were selected to fall within a linear range of concentration versus absorbance for the UV detector employed. The standard concentration for 1-[3-(4-bromo-2-methyl-2H-pyrazol-3-yl)-4-methoxy-phenyl]-3-(2,4-difluoro-phenyl)-urea was diluted in serial fashion to obtain a calibration curve. Dilution was effected by adding the acetonitrile from mobile phase. Each saturated equilibrium solution for 1-[3-(4-bromo-2-methyl-2H-pyrazol-3-yl)-4-methoxy-phenyl]-3-(2,4-difluoro-phenyl)-urea obtained after filtering the test vial solutions was diluted with acetonitrile or methonal with appropriate dilution factor to reach the linear range of the standard plot.

[5] = Plasma pharmacokinetics in healthy male and female volunteers following oral administration of a capsule formulated dose; assay type: in vivo; details: both sexes, human, capsule with Cremephor RH40
Method: Plasma pharmacokinetics for 1-[3-(4-bromo-2-methyl-2H-pyrazol-3-yl)-4-methoxy-phenyl]-3-(2,4-difluoro-phenyl)-urea were determined in healthy male and female volunteers following oral administration of a capsule formulated dose of 1-[3-(4-bromo-2-methyl-2H-pyrazol-3-yl)-4-methoxy-phenyl]-3-(2,4-difluoro-phenyl)-urea and Cremephor RH40.

[6] = target: 5-HT2A serotonin receptor (Homo sapiens, UniProt P28223); details: cited from earlier work
Chain of 5-HT2A serotonin receptor (P28223 whole entry): as above

[7] = patients, 24 months of treatment; cited from earlier work
[8] = glaucoma patients; cited from earlier work

SMILES: O=C(c1ccc(F)cc1)C1CCN(CCn2c(=O)[nH]c3ccccc3c2=O)CC1 [ketanserin]
JC virus infection of human glial cells [1]: inhibited JC virus infection
inverse agonist activity at 5-HT2A [2]: have inverse agonist activity

SMILES: Cc1nc2sccn2c(=O)c1CCN1CCC(=C(c2ccc(F)cc2)c2ccc(F)cc2)CC1 [ritanserin]
14.9% reduction in saphenous sensory conduction velocity [3]: completely reversed
44.7% reduction in sciatic endoneurial blood flow [3]: completely reversed
JC virus infection of human glial cells [1]: inhibited JC virus infection
inverse agonist activity at 5-HT2A [2]: have inverse agonist activity

solubility ([4]; 0.01 N HCl, 25 °C, pH 2, simulated gastric fluid, 0.01 N HCl (about pH 2), read-out: aqueous solubility): ≤ 0.01 mg/mL
solubility ([4]; 0.01 N HCl, 25 °C, pH 2, simulated gastric fluid, at 25° C. in 0.01 N HCl (pH 2), read-out: Solubility): < 0.01 mg/mL
solubility ([4]; 25 mM phosphate buffer, 25 °C, pH 7, aqueous buffer, at 25° C. in 25 mM Phosphate buffer (pH 7), read-out: Solubility): < 0.01 mg/mL
solubility ([4]; 0.05% Tween 80 & 0.5% Methocel, 25 °C, aqueous with cosolvent or surfactant or cyclodextrin, at 25° C. in 0.05% Tween 80 & 0.5% Methocel, read-out: Solubility): < 0.01 mg/mL
solubility ([4]; 1% Tween 80, 25 °C, aqueous with cosolvent or surfactant or cyclodextrin, at 25° C. in 1% Tween 80, read-out: Solubility): 0.4 mg/mL (≈ 0.915 mM)
solubility ([4]; 5% Gum Arabic, 25 °C, aqueous with cosolvent or surfactant or cyclodextrin, at 25° C. in 5% Gum Arabic, read-out: Solubility): < 0.01 mg/mL
solubility ([4]; 50% Captisol, 25 °C, aqueous with cosolvent or surfactant or cyclodextrin, at 25° C. in 50% Captisol, read-out: Solubility): 0.4 mg/mL (≈ 0.915 mM)
solubility ([4]; Cremophor RH 40, 25 °C, organic solvent or mixture, at 25° C. in Cremophor RH 40, read-out: Solubility): 196 mg/mL (≈ 448 mM)
solubility ([4]; Labrafil M 1944 CS, 25 °C, oil or lipid, at 25° C. in Labrafil M 1944 CS, read-out: Solubility): 29.9 mg/mL (≈ 68.4 mM)
solubility ([4]; Labrafil M 2125 CS, 25 °C, oil or lipid, at 25° C. in Labrafil M 2125 CS, read-out: Solubility): 32.7 mg/mL (≈ 74.8 mM)
solubility ([4]; Labrasol, 25 °C, oil or lipid, at 25° C. in Labrasol, read-out: Solubility): 348 mg/mL (≈ 796 mM)
solubility ([4]; PEG 300, 25 °C, organic solvent or mixture, at 25° C. in PEG 300, no suspension observed, read-out: Solubility): > 150 mg/mL
solubility ([4]; PEG 400, 25 °C, organic solvent or mixture, at 25° C. in PEG 400, read-out: Solubility): 377 mg/mL (≈ 861 mM)
solubility ([4]; PEG 600, 25 °C, organic solvent or mixture, at 25° C. in PEG 600, no suspension observed, read-out: Solubility): > 325 mg/mL
solubility ([4]; Softigen 767, 25 °C, oil or lipid, at 25° C. in Softigen 767, no suspension observed, read-out: Solubility): > 200 mg/mL
solubility ([4]; Transcutol P, 25 °C, organic solvent or mixture, at 25° C. in Transcutol P, no suspension observed, read-out: Solubility): > 200 mg/mL
solubility ([4]; Tween 20, 25 °C, organic solvent or mixture, at 25° C. in Tween 20, no suspension observed, read-out: Solubility): > 160 mg/mL
solubility ([4]; Tween 80, 25 °C, organic solvent or mixture, at 25° C. in Tween 80, read-out: Solubility): 320 mg/mL (≈ 732 mM)
solubility ([4]; deionized water, 25 °C, water, at 25° C. in Deionized water, read-out: Solubility): < 0.01 mg/mL
solubility ([4]; deionized water, 25 °C, water, deionized water, read-out: aqueous solubility): ≤ 0.01 mg/mL
solubility ([4]; phosphate buffer, 25 °C, pH 7, aqueous buffer, phosphate buffer (about pH 7), read-out: aqueous solubility): ≤ 0.01 mg/mL
solubility ([4]; saline (0.9% NaCl solution), 25 °C, saline or isotonic, at 25° C. in Saline (0.9% NaCl solution), read-out: Solubility): < 0.01 mg/mL
solubility ([4]; saline (about 0.9% NaCl solution), 25 °C, saline or isotonic, saline (about 0.9% NaCl solution), read-out: aqueous solubility): ≤ 0.01 mg/mL
AUC(0-inf) ([5]; single oral dose 10 mg): 51 ng·h/mL
Cmax ([5]; single oral dose 10 mg): 18 ng/mL
Tmax ([5]; single oral dose 10 mg): 1.2 h
AUC(0-inf) ([5]; single oral dose 20 mg): 181 ng·h/mL
Cmax ([5]; single oral dose 20 mg): 58 ng/mL
Tmax ([5]; single oral dose 20 mg): 1.2 h
AUC(0-inf) ([5]; single oral dose 40 mg): 395 ng·h/mL
Cmax ([5]; single oral dose 40 mg): 113 ng/mL
Tmax ([5]; single oral dose 40 mg): 1.5 h
AUC(0-inf) ([5]; single oral dose 80 mg): 612 ng·h/mL
Cmax ([5]; single oral dose 80 mg): 118 ng/mL
Tmax ([5]; single oral dose 80 mg): 1.2 h
AUC(0-inf) ([5]; single oral dose 160 mg): 739 ng·h/mL
Cmax ([5]; single oral dose 160 mg): 125 ng/mL
Tmax ([5]; single oral dose 160 mg): 1.5 h
SMILES: COc1ccc(NC(=O)Nc2ccc(F)cc2F)cc1-c1c(Br)cnn1C [1-[3-(4-bromo-2-methyl-2H-pyrazol-3-yl)-4-methoxy-phenyl]-3-(2,4-difluoro-phenyl)-urea]
effectiveness as a modulator of the 5-HT2A serotonin receptor [6]: especially effective as a modulator of the 5-HT2A serotonin receptor

SMILES: COc1cccc(CCc2ccccc2OCC(CN(C)C)OC(=O)CCC(=O)O)c1 (stereo not drawn) [sarpogrelate]
14.9% reduction in saphenous sensory conduction velocity [3]: completely reversed
44.7% reduction in sciatic endoneurial blood flow [3]: completely reversed
urinary albumin excretion level [7]: significantly reduced
IOP [8]: significantly lower IOP

SMILES: O=CN1CCC(C(=O)NCCN2CCC(=C3c4ccccc4C=Cc4ccccc43)CC2)CC1 [AT-1015]
14.9% reduction in saphenous sensory conduction velocity [3]: completely reversed
44.7% reduction in sciatic endoneurial blood flow [3]: completely reversed
